From patent US20260234125A1, “CYCLIC AMINE DERIVATIVE, AND COMPOSITION AND USE THEREOF” (SHANGHAI JINGXIN BIOMEDICAL CO., LTD., priority 2023, published 2026) come the findings set out here.

Data set [1] is described as follows: Exposure determination in beagle dogs. The following applies: dog, single oral gavage 4.5 mg/kg, plasma. In kind it is in vivo. The method, then:
• 1. Experimental purpose: The purpose of this test is to test the exposure of the compound in beagle dogs • 2. Experimental methods: Beagle dogs were housed with a standard light cycle (12 hours light/12 hours dark), at a room temperature of 18-26° C. and a relative humidity of 40-70%, with free access to water and normal diet. Five days prior to the study, the beagle dogs were randomly assigned to groups based on their body weight for the study, including an oral administration group (n=3/group). The administration volume was calculated according to the weight of the animals on the day of administration, and the administration volume was 5 mL/kg, the single oral gavage administration was performed at a dose of 4.5 mg/kg, and the solvent was 1% HEC and 0.25% Tween 80 in Water. Blood was collected from the forelimb vein or other suitable veins at 0.5 h, 1 h, 2 h, 4 h, 6 h, 8 h, 12 h, 24 h, 48 h, 72 h and 96 h after administration. About 1 mL of each sample was collected, K2-EDTA anticoagulated, placed on ice after collection, and within 1 hour, centrifuged to separate plasma (centrifugation conditions: 2200 g, 10 minutes, 2-8° C.) for blood drug concentration detection.

The test system of data set [2] is Salmonella typhimurium TA100. Description: Salmonella typhimurium reverse mutation test, TA100. Details: key: + indicates a positive mutagenic result; − indicates a negative mutagenic result. In kind it is cell-based. The method, then:
The revived strains or a single colony from the master plate were inoculated into the broth, and cultured in a thermostat gas bath vibrator at 100 to 120 rpm and 37±1° C. for 10 to 16 hours, marked and stored for later use. The bottom agar medium (containing an appropriate amount of agar, Vogel-Bonner buffer, 20% glucose solution and 20% magnesium sulfate solution) was poured into a six-well plate, approximately […] into each well, and allowed to cool and solidify naturally, marked each well and stored for later use.
Three wells were set up in each group for parallel experiments. The top agar medium was sterilized under high pressure and kept warm at about 65° C. In each test tube, 0.1 mL of negative control (DMSO) or positive control or test sample, 0.1 mL of bacterial solution suspension, 0.5 mL of phosphate buffer (0.2M PBS) (−S9) or 0.5 mL of S9 mixed solution (+S9) and 2.5 mL top culture medium were added, after vortex mixing, and then quickly and evenly spread on the culture dish which was already spreaded with the bottom agar medium. After natural cooling and solidification, the culture dish was inverted and placed in a 37° C. incubator for 48 to 72 hours. After culturing for 48 to 72 hours, the culture dish was taken out, and the number of revertant colonies in each well was counted, the growth background was observed under a microscope to determine whether there was antibacterial or bactericidal activity, and the experimental results were recorded.

In another data set the target is T1, human Apo(a) protein (Homo sapiens, UniProt P08519).
T1 construct: biotin (biotinylated)
In words: BLI affinity of compounds to Apo(a). It is filed as binding. Conditions: biotinylated apolipoprotein(a) on SA sensor, compound 100 nM. The method, then: • 1. Experimental purpose: The purpose of this test is to test the affinity of the compounds of the present disclosure to Apo(a) • 2. Experimental instruments and reagents: • Molecular interaction analyzer (ForteBio Octet red 96e), • SA sensor (ForteBio), • 96-well plates were purchased from Greine, • 3. Experimental methods:
Prepared two 96-well plates, one as a sample plate and another as a pre-wett plate, curing buffer was added to a 200 μL well of the pre-wet plate, and the SA sensor was pre-wetted for at least ten minutes. All reagents and samples were added to another black sample plate, after the sample addition was completed, the sensor plate and the sample plate were placed into the ForteBio Octet red 96e instrument. The program was set up in sequence for detection. The experimental temperature was set to 30° C. and the acquisition frequency was set at 5.0 Hz. The biosensor was run in 1×PBS, pH7.4, 0.02% Tween-20, 0.1% BSA in the first column for 60 seconds, which was the baseline step. Biotinylated apolipoprotein(a) was diluted to 40 μg/ml with 1×PBS, pH7.4, 0.02% Tween-20, 0.1% BSA, and added to the second column, where it was run for a period of time until the amount of curing on the sensor reaches 2.0 nm. The biosensor was run in 1×PBS, pH7.4, 0.02% Tween-20, 0.1% BSA in the third column for 60 seconds, which was the baseline step. The compound was diluted to 100 nM with 1×PBS, pH7.4, 0.02% Tween-20, 0.1% BSA, and added to the fourth column, where the sensor was run for 60 seconds. The sensor was run in 1×PBS, pH7.4, 0.02% Tween-20, 0.1% BSA in the third column for 120 seconds, during this process, the compound dissociated from the sensor. The affinity constant KD reflects the size of the interaction binding ability. When the concentration of the analyte is at KD, the equilibrium signal Req is half of Rmax.

T1 sequence (P08519 20-2040): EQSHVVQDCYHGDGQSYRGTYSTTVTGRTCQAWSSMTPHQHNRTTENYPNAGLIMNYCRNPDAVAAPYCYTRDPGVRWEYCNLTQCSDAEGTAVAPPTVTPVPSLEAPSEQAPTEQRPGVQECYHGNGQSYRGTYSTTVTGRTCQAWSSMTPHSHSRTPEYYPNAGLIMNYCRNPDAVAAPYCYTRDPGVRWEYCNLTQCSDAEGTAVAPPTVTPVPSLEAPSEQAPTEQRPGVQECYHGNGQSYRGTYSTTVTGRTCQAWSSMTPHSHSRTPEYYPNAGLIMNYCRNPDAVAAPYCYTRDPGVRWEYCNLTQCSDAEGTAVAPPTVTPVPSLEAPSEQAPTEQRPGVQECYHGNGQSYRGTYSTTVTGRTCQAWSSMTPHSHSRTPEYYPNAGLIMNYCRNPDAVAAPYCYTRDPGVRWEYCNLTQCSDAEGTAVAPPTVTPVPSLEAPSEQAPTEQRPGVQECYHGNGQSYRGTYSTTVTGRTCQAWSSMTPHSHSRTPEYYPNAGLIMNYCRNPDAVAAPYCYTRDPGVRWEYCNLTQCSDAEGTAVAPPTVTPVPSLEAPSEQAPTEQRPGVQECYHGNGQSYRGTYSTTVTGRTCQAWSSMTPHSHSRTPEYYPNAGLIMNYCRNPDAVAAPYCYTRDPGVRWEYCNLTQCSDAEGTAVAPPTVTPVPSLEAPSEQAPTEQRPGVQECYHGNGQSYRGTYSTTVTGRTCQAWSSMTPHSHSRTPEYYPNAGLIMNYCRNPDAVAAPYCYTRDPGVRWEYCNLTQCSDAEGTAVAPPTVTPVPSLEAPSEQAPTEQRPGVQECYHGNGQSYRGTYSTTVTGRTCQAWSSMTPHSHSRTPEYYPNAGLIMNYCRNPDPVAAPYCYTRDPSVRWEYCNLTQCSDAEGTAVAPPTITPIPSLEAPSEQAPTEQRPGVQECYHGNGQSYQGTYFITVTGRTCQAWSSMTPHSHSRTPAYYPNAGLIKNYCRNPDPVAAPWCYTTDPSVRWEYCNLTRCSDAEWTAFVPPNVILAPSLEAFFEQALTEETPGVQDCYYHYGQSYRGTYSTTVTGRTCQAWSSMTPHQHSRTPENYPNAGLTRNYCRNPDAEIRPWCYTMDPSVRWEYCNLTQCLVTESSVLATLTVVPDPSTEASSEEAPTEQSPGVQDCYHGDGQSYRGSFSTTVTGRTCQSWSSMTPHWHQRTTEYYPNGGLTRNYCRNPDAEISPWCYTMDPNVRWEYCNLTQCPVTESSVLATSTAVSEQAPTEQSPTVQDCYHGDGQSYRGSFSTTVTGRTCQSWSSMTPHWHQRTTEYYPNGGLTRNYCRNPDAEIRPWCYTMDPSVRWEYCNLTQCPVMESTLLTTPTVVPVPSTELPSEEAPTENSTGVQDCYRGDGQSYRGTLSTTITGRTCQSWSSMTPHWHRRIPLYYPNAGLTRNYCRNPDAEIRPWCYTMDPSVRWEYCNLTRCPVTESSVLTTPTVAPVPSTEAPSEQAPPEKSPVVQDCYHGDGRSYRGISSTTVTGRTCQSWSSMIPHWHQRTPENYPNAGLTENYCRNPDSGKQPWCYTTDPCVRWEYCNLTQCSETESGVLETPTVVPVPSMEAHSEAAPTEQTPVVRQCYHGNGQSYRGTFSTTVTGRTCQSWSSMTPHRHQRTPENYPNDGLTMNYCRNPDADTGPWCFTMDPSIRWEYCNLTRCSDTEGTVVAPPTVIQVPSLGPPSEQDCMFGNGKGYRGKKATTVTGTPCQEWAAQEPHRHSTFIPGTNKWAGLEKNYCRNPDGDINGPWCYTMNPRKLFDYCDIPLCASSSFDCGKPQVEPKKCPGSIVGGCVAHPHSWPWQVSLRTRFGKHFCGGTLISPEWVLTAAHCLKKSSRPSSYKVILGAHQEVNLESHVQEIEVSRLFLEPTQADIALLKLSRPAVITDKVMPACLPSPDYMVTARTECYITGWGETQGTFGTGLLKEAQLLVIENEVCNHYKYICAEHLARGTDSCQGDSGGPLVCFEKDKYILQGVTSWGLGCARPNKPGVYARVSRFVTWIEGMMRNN

Broadly, the AUC(0-inf) is the area under the concentration-time curve extrapolated to infinity. As for `O=C(O)[C@@H](Cc1cccc(CN(Cc2cccc(C[C@H](C(=O)O)[C@H]3CCNC3)c2)Cc2cccc(C[C@H](C(=O)O)[C@H]3CCNC3)c2)c1)[C@H]1CCNC1` [Comparative Example 1, reference compound], the area under the curve AUC(0-inf) in data set [1] stood at 37400 ng·h/mL. Further, the mutagenicity entry in data set [2] (TA100, +S9, 62 μg/dish) is “−”; in data set [2] (TA100, +S9, 185 μg/dish), “−”; in data set [2] (TA100, +S9, 556 μg/dish), “−”; in data set [2] (TA100, +S9, 1667 μg/dish) it was “−”; in data set [2] (TA100, +S9, 5000 μg/dish), “−”; in data set [2] (TA100, −S9, 62 μg/dish) it was “−”. For the same compound, the mutagenicity result in data set [2] (TA100, −S9, 185 μg/dish) is “−”; in data set [2] (TA100, −S9, 556 μg/dish), “−”; in data set [2] (TA100, −S9, 1667 μg/dish), “−”; in data set [2] (TA100, −S9, 5000 μg/dish) it was “−”.

As usually defined, the Kd is the concentration at which binding is half-saturated. With `O=C(O)[C@@H](Cc1cccc(CN(Cc2cccc(C[C@H](C(=O)O)[C@H]3CCNC3)c2)C(=O)c2cccc(C[C@H](C(=O)O)[C@H]3CCNC3)c2)c1)[C@H]1CCNC1` [Example 5], at human Apo(a) protein, binding was characterised by a dissociation constant (Kd) of 10.9 nM. The same compound gave an area under the curve AUC(0-inf) in data set [1] of 119000 ng·h/mL. The mutagenicity result in data set [2] (TA100, +S9, 62 μg/dish) was “−”; in data set [2] (TA100, +S9, 185 μg/dish) it was “−”; in data set [2] (TA100, +S9, 556 μg/dish) it was “−”; in data set [2] (TA100, +S9, 1667 μg/dish), “−”; in data set [2] (TA100, +S9, 5000 μg/dish) it was “−”; in data set [2] (TA100, −S9, 62 μg/dish), “−”. Further, the mutagenicity entry is “−” in data set [2] (TA100, −S9, 185 μg/dish); “−” in data set [2] (TA100, −S9, 556 μg/dish); “−” in data set [2] (TA100, −S9, 1667 μg/dish); “−” in data set [2] (TA100, −S9, 5000 μg/dish).
